Laboratory results: patent US20150045553A1, “PHENYLTRIAZOLE DERIVATIVE” (TOSHO PHARMACEUTICAL CO., LTD, priority 2011, published 2015)
Where a name gives a salt, the structure may show the parent alone.

The molecules below were run against T1, H3 receptor (Rattus norvegicus, UniProt Q9QYN8) (assay: Rat H3 receptor binding test (N-α-methyl[3H]histamine, frontal cortex membrane fraction)). Conditions: N-α-methyl[3H]histamine 0.75 nM, room temperature, an hour.
T1 construct: The frontal cortex dissected from rats was homogenized; from tissue; host or cells: rat frontal cortex membrane fraction
T1 sequence (Q9QYN8 whole entry): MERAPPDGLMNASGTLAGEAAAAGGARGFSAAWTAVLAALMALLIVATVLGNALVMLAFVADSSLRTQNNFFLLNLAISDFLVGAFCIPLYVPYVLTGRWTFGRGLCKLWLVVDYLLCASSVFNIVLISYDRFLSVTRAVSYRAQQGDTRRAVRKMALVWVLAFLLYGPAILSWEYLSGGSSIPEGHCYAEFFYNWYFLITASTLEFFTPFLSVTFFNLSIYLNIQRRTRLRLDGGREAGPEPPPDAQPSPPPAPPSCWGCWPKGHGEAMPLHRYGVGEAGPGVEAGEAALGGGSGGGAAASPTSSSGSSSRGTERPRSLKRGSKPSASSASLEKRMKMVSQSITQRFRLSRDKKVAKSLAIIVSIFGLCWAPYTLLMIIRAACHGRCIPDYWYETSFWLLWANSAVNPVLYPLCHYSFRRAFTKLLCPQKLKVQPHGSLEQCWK
Protocol: (Test 1: Rat H3 Receptor Binding Test)
The frontal cortex dissected from rats was homogenized with a Teflon (registered trademark) homogenizer in a 50 mM Tris-HCl buffer solution (pH 7.4) containing a protease inhibitor (Complete EDTA-free; Roche Diagnostics) and 5 mM EDTA. The homogenate was centrifuged at 48,000×g for 15 minutes. The supernatant was removed and the pellet was suspended in a 50 mM Tris-HCl buffer solution (pH 7.4) containing 5 mM EDTA and centrifuged at 48,000×g for 15 minutes. The supernatant was removed and the pellet was suspended in a 50 mM Tris-HCl buffer solution (pH 7.4) containing 5 mM EDTA to give a membrane fraction. The membrane fraction (the protein content in the final reaction mixture: 75 μg), N-α-methyl[^3H]histamine (PerkinElmer; final concentration: 0.75 nM) and a test drug were mixed and subjected to reaction at room temperature for an hour. After the end of the reaction, the reaction mixture was suction filtered through a 96-well GF/C filter plate pretreated with 0.3% polyethyleneimine; the filters were then washed five times with a 50 mM Tris-HCl buffer solution (pH 7.4) containing 5 mM EDTA. After the washing, the filters were dried and a scintillator was added to measure the residual radioactivity on the filter with TopCount (PerkinElmer).
The residual radioactivity in the presence of 10 μM thioperamide was taken as indicative of nonspecific binding and the difference from the residual radioactivity in the absence of thioperamide was taken as indicative of specific binding. Each of the test drugs was dissolved and diluted in DMSO at varying concentrations to plot a dose-response curve from the corresponding residual radioactivities; the concentration of test drug that inhibited the specific binding by 50% (IC50) was determined from this curve.
Molecule `c1cc(-n2cc(C3CC3)nn2)ccc1OC1CCN(C2CCC2)CC1` [Compound No. 4, 1-cyclobutyl-4-[4-(4-cyclopropyl-1H-1,2,3-triazol-1-yl)phenoxy]piperidine] has an IC50 of 3.6 nM. In the case of `CCOC(=O)c1ncn(-c2ccc(OC3CCN(C4CCC4)CC3)cc2)n1` [Compound No. 33, ethyl 1-{4-[(1-cyclobutylpiperidin-4-yl)oxy]phenyl}-1H-1,2,4-triazole-3-carboxylate], the IC50 is reported as 4.5 nM. In the case of `Cc1c(C(=O)N2CCCC2)nnn1-c1ccc(OC2CCN(C3CCC3)CC2)cc1` [compound 9, (1-{4-[(1-cyclobutylpiperidin-4-yl)oxy]phenyl}-5-methyl-1H-1,2,3-triazol-4-yl)(pyrrolidin-1-yl)methanone], the IC50 is reported as 24 nM. Work on `CC(C)(C)N1CCC(Oc2ccc(-n3cc(C(N)=O)nn3)cc2)CC1` [Compound No. 31, 1-{4-[(1-tert-butylpiperidin-4-yl)oxy]phenyl}-1H−1,2,3-triazole-4-carboxamide] yielded an IC50 of 122 nM. Work on `O=C(c1cn(-c2ccc(OC3CCN(C4CCC4)CC3)cc2)nn1)N1CCC1` [Compound No. 18, azetidin-1-yl(1-{4-[(1-cyclobutylpiperidin-4-yl)oxy]phenyl}-1H-1,2,3-triazol-4-yl)methanone] yielded an IC50 of 14 nM. Molecule `NC(=O)c1ncn(-c2ccc(OC3CCN(C4CCC4)CC3)cc2)n1` [Compound No. 39, 1-{4-[(1-cyclobutylpiperidin-4-yl)oxy]phenyl}-1H-1,2,4-triazole-3-carboxamide] has an IC50 of 11 nM. Work on `O=C(Cc1cn(-c2ccc(OC3CCN(C4CCC4)CC3)cc2)nn1)N1CCCC1` [compound 12, 2-(1-[4-[(1-cyclobutylpiperidin-4-yl)oxy]phenyl}-1H-1,2,3-triazol-4-yl)-1-(pyrrolidin-1-yl)ethanone] yielded an IC50 of 16 nM. `CC(C)(C)N1CCC(Oc2ccc(-n3cc(C(=O)N4CCCC4)nn3)cc2)CC1` [Compound No. 28, (1-{4-[(1-tert-butylpiperidin-4-yl)oxy]phenyl}-1H-1,2,3-triazol-4-yl)(pyrrolidin-1-yl)methanone] gave an IC50 of 33 nM. Molecule `C[C@@H]1CCCN1CCCOc1ccc(-n2cc(C(=O)N3CCC3)nn2)cc1` [compound 16, azetidin-1-yl[1-(4-{3-[(2R)-2-methylpyrrolidin-1-yl]propoxy}phenyl)-1H-1,2,3-triazol-4-yl]methanone] has an IC50 of 16 nM. Molecule `CCOC(=O)c1cn(-c2ccc(OC3CCN(C4CCC4)CC3)cc2)nn1` [Compound No. 1, ethyl 1-{4-[(1-cyclobutylpiperidin-4-yl)oxy]phenyl}-1H-1,2,3-triazole-4-carboxylate] has an IC50 of 5.3 nM. `COCc1cn(-c2ccc(OC3CCN(C4CCC4)CC3)cc2)nn1` [Compound No. 2, 1-cyclobutyl-4-{4-[4-(methoxymethyl)-1H-1,2,3-triazol-1-yl]phenoxy}piperidine] gave an IC50 of 7.4 nM. In the case of `c1cn(-c2ccc(OC3CCN(C4CCC4)CC3)cc2)nn1` [Compound No. 23, 1-cyclobutyl-4-[4-(1H-1,2,3-triazol-1-yl)phenoxy]piperidine], the IC50 is reported as 17 nM. With `NC(=O)c1cn(-c2ccc(OC3CCN(C4CCC4)CC3)cc2)nn1` [Compound No. 20, 1-{4-[(1-cyclobutylpiperidin-4-yl)oxy]phenyl}-1H-1,2,3-triazole-4-carboxamide] the IC50 was 18 nM. `N#Cc1cn(-c2ccc(OC3CCN(C4CCC4)CC3)cc2)nn1` [Compound No. 21, 1-{4-[(1-cyclobutylpiperidin-4-yl)oxy]phenyl}-1H-1,2,3-triazole-4-carbonitrile hydrochloride] gave an IC50 of 13 nM. For `CCOC(=O)c1cn(-c2ccc(OC3CCN(C(C)(C)C)CC3)cc2)nn1` [Compound No. 27, ethyl 1-{4-[(1-tert-butylpiperidin-4-yl)oxy]phenyl}-1H-1,2,3-triazole-4-carboxylate], the IC50 was 70 nM. Work on `CC(=O)c1cn(-c2ccc(OC3CCN(C4CCC4)CC3)cc2)nn1` [compound 5, 1-(1-[4-[(1-cyclobutylpiperidin-4-yl)oxy]phenyl}-1H-1,2,3-triazol-4-yl)ethanone] yielded an IC50 of 7.7 nM. `O=C(c1ncn(-c2ccc(OC3CCN(C4CCC4)CC3)cc2)n1)N1CCC1` [Compound No. 35, azetidin-1-yl(1-{4-[(1-cyclobutylpiperidin-4-yl)oxy]phenyl}-1H-1,2,4-triazol-3-yl)methanone] showed an IC50 of 0.5 nM. For `CNC(=O)c1cn(-c2ccc(OC3CCN(C(C)(C)C)CC3)cc2)nn1` [Compound No. 30, 1-{4-[(1-tert-butylpiperidin-4-yl)oxy]phenyl}-N-methyl-1H-1,2,3-triazole-4-carboxamide], the IC50 was 126 nM. `CC(C)(O)c1cn(-c2ccc(OC3CCN(C4CCC4)CC3)cc2)nn1` [compound 6, 2-(1-{4-[(1-cyclobutylpiperidin-4-yl)oxy]phenyl}-1H-1,2,3-triazol-4-yl)propan-2-ol] gave an IC50 of 12 nM. `CCOc1cn(-c2ccc(OC3CCN(C4CCC4)CC3)cc2)nn1` [Compound No. 3, 1-cyclobutyl-4-[4-(4-ethoxy-1H-1,2,3-triazol-1-yl)phenoxy]piperidine] showed an IC50 of 5.1 nM. Work on `CC(C)(C)NC(=O)c1ncn(-c2ccc(OC3CCN(C4CCC4)CC3)cc2)n1` [Compound No. 37, N-tert-butyl-1-{4-[(1-cyclobutylpiperidin-4-yl)oxy]phenyl}-1H-1,2,4-triazole-3-carboxamide] yielded an IC50 of 7.3 nM. `CCOC(=O)c1cn(-c2ccc(OCCCN3CCC[C@H]3C)cc2)nn1` [Compound No. 24, ethyl 1-(4-{3-[(2R)-2-methylpyrrolidin-1-yl]propoxy}phenyl)-1H-1,2,3-triazole-4-carboxylate] was tested, and the IC50 was 7.4 nM. `O=C(Cc1cn(-c2ccc(OC3CCN(C4CCC4)CC3)cc2)nn1)N1CCC1` [compound 13, 1-(azetidin-1-yl)-2-(1-{4-[(1-cyclobutylpiperidin-4-yl)oxy]phenyl}-1H-1,2,3-triazol-4-yl)ethanone] was tested, and the IC50 was 19 nM. `N#Cc1ncn(-c2ccc(OC3CCN(C4CCC4)CC3)cc2)n1` [Compound No. 41, 1-{4-[(1-cyclobutylpiperidin-4-yl)oxy]phenyl}-1H-1,2,4-triazole-3-carbonitrile] showed an IC50 of 6.4 nM. With `Cc1c(C(=O)N2CCC2)nnn1-c1ccc(OC2CCN(C3CCC3)CC2)cc1` [compound 10, azetidin-1-yl(1-{4-[(1-cyclobutylpiperidin-4-yl)oxy]phenyl}-5-methyl-1H-1,2,3-triazol-4-yl)methanone] the IC50 was 37 nM. `O=C(O)c1ncn(-c2ccc(OC3CCN(C4CCC4)CC3)cc2)n1` [Compound No. 38, 1-{4-[(1-cyclobutylpiperidin-4-yl)oxy]phenyl}-1H-1,2,4-triazole-3-carboxylic acid hydrochloride] gave an IC50 of 158 nM. `O=C(c1ncn(-c2ccc(OC3CCN(C4CCC4)CC3)cc2)n1)N1CCCCC1` [Compound No. 36, (1-{4-[(1-cyclobutylpiperidin-4-yl)oxy]phenyl}-1H-1,2,4-triazol-3-yl)(piperidin-1-yl)methanone] showed an IC50 of 10 nM. `O=C(c1ncn(-c2ccc(OC3CCN(C4CCC4)CC3)cc2)n1)N1CCCC1` [Compound No. 34, (1-{4-[(1-cyclobutylpiperidin-4-yl)oxy]phenyl}-1H-1,2,4-triazol-3-yl)(pyrrolidin-1-yl)methanone] showed an IC50 of 1.3 nM. `CNC(=O)c1nnn(-c2ccc(OC3CCN(C4CCC4)CC3)cc2)c1C` [compound 11, 1-{4-[(1-cyclobutylpiperidin-4-yl)oxy]phenyl}-N,5-dimethyl-1H-1,2,3-triazole-4-carboxamide] was tested, and the IC50 was 19 nM. `CN(C)C(=O)c1cn(-c2ccc(OC3CCN(C4CCC4)CC3)cc2)nn1` [Compound No. 26, 1-{4-[(1-cyclobutylpiperidin-4-yl)oxy]phenyl}-N,N-dimethyl-1H-1,2,3-triazole-4-carboxamide] showed an IC50 of 5.5 nM. `C[C@@H]1CCCN1CCCOc1ccc(-n2cc(C(=O)N3CCCC3)nn2)cc1` [compound 15, [1-(4-{3-[(2R)-2-methylpyrrolidin-1-yl]propoxy}phenyl)-1H-1,2,3-triazol-4-yl](pyrrolidin-1-yl)methanone] was tested, and the IC50 was 8.9 nM. Molecule `O=C(c1cn(-c2ccc(OC3CCN(C4CCC4)CC3)cc2)nn1)N1CCOCC1` [Compound No. 25, (1-{4-[(1-cyclobutylpiperidin-4-yl)oxy]phenyl}-1H-1,2,3-triazol-4-yl)(morpholin-4-yl)methanone] has an IC50 of 6.4 nM. `CC(C)(C)N1CCC(Oc2ccc(-n3cc(C(=O)N4CCC4)nn3)cc2)CC1` [Compound No. 29, azetidin-1-yl(1-{4-[(1-tert-butylpiperidin-4-yl)oxy]phenyl}-1H-1,2,3-triazol-4-yl)methanone] showed an IC50 of 48 nM. `O=C(O)c1cn(-c2ccc(OC3CCN(C4CCC4)CC3)cc2)nn1` [Compound No. 17, 1-{4-[(1-cyclobutylpiperidin-4-yl)oxy]phenyl}-1H-1,2,3-triazole-4-carboxylic acid hydrochloride] showed an IC50 of 132 nM. `CNC(=O)Cc1cn(-c2ccc(OC3CCN(C4CCC4)CC3)cc2)nn1` [compound 14, 2-(1-{4-[(1-cyclobutylpiperidin-4-yl)oxy]phenyl}-1H-1,2,3-triazol-4-yl)-N-methylacetamide] showed an IC50 of 32 nM. For `CC(C)(C)c1cn(-c2ccc(OC3CCN(C4CCC4)CC3)cc2)nn1` [compound 7, 4-[4-(4-tert-butyl-1H-1,2,3-triazol-1-yl)phenoxy]-1-cyclobutylpiperidine], the IC50 was 4.9 nM.
